Results on 24 compounds are retold here after patent US20250230153A1, “2,3-DIHYDROBENZO[B][1,4]DIOXIN-6-YL CONTAINING COMPOUNDS USEFUL AS IMMUNOMODULATORS” (BRISTOL-MYERS SQUIBB COMPANY, priority 2021, published 2025).

pIC50: −log10 of the molar value.

Sequence of PD-1/PD-L1 (Q9NZQ7 18-239): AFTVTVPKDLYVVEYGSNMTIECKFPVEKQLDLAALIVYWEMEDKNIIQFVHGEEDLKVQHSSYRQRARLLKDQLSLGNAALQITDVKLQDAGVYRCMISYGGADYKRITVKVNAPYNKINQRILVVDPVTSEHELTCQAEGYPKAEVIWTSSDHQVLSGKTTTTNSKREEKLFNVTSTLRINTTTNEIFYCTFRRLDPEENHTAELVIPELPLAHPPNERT

In the assay the target is PD-1/PD-L1 (Homo sapiens (Human), UniProt Q9NZQ7). Kind of assay: PD-1/PD-L1 Homogenous Time-Resolved Fluorescence (HTRF) binding assay. The note with it: PD-1-Ig (20 nM final)/PD-L1-His (10 nM final) binding assay. The essentials:
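Compounds pre-incubated 15 min with human PD-L1(18-239)-His (10 nM final), then 15 min with PD-1(25-167)-Ig (20 nM final), in dPBS with 0.1% BSA and 0.05% Tween-20. Detection with Eu-cryptate anti-Ig (1 nM) and APC anti-His (20 nM) after 30 min equilibration; 665/620 nm ratio read.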
By pIC50 is commonly meant the negative decadic logarithm of the IC50, by convention in mol/L. Read a low pIC50 as a large IC50. Regarding `Cc1c(COc2cc(OCCCCN3CC[C@@H](O)C3)c(CN[C@](C)(CO)C(=O)O)cc2Cl)cccc1-c1ccc2c(c1)OCCO2` [Example 1026, (R)-2-((5-Chloro-4-((3-(2,3-dihydrobenzo[b][1,4]dioxin-6-yl)-2-methylbenzyl)oxy)-2-(4-((R)-3-hydroxypyrrolidin-1-yl)butoxy)benzyl)amino)-3-hydroxy-2-methylpropanoic acid], the negative-log IC50 (pIC50) was 8.66.
In the case of `Cc1c(COc2cc(OCC3CCCN(C)C3)c(CN3CCCC[C@H]3C(=O)O)cc2Cl)cccc1-c1ccc2c(c1)OCCO2` (stereo partly drawn) [Example 2012, (2S)-1-(5-Chloro-4-((3-(2,3-dihydrobenzo[b][1,4]dioxin-6-yl)-2-methylbenzyl)oxy)-2-((1-methylpiperidin-3-yl)methoxy)benzyl)piperidine-2-carboxylic acid] it was 7.55.
To `Cc1c(COc2cc(OCCCN(C)C)c(CN[C@@](C)(CO)C(=O)O)cc2Cl)cccc1-c1ccc2c(c1)OCCO2` [Example 2001, (S)-2-((5-chloro-4-((3-(2,3-dihydrobenzo[b][1,4]dioxin-6-yl)-2-methylbenzyl)oxy)-2-(3-(dimethylamino)propoxy)benzyl)amino)-3-hydroxy-2-methylpropanoic acid] belongs 8.02; to `Cc1c(COc2cc(OCc3cnn(CC(=O)OC(C)(C)C)c3)c(CN[C@@](C)(CO)C(=O)O)cc2Cl)cccc1-c1ccc2c(c1)OCCO2` [Example 1009, (S)-2-((2-((1-(2-(tert-Butoxy)-2-oxoethyl)-1H-pyrazol-4-yl)methoxy)-5-chloro-4-((3-(2,3-dihydrobenzo[b][1,4]dioxin-6-yl)-2-methylbenzyl)oxy)benzyl)amino)-3-hydroxy-2-methylpropanoic acid], 7.36; to `Cc1c(COc2cc(OCC3CCCN(C)C3)c(CN[C@@H](CO)C(=O)O)cc2Cl)cccc1-c1ccc2c(c1)OCCO2` (single isomer, unassigned) [Example 2006], 8.55.
In the case of `Cc1c(COc2cc(OCCCN(C)C)c(CN[C@@H](CO)C(=O)O)cc2Cl)cccc1-c1ccc2c(c1)OCCO2` [Example 2002, (S)-2-((5-chloro-4-((3-(2,3-dihydrobenzo[b][1,4]dioxin-6-yl)-2-methylbenzyl)oxy)-2-(3-(dimethylamino)propoxy)benzyl)amino)-3-hydroxypropanoic acid] it was 8.19; in that of `COC(=O)CCSc1cncc(COc2cc(OCc3cccc(-c4ccc5c(c4)OCCO5)c3C)c(Cl)cc2CN2CCCC[C@H]2C(=O)O)c1` [Example 1007, (S)-1-(5-Chloro-4-((3-(2,3-dihydrobenzo[b][1,4]dioxin-6-yl)-2-methylbenzyl)oxy)-2-((5-((3-methoxy-3-oxopropyl)thio)pyridin-3-yl)methoxy)benzyl)piperidine-2-carboxylic acid], 7.56.
As for `Cc1c(COc2cc(OCc3cncc(SCc4ccccc4)c3)c(CN3CCCC[C@H]3C(=O)O)cc2Cl)cccc1-c1ccc2c(c1)OCCO2` [Example 1010, (S)-1-(2-((5-(Benzylthio)pyridin-3-yl)methoxy)-5-chloro-4-((3-(2,3-dihydrobenzo [b][1,4]dioxin-6-yl)-2-methylbenzyl)oxy)benzyl)piperidine-2-carboxylic acid], the pIC50 is 7.36.
To `Cc1c(COc2cc(OCC3CCOCC3)c(CN3CCCC[C@H]3C(=O)O)cc2Cl)cccc1-c1ccc2c(c1)OCCO2` [Example 1046, (S)-1-(5-Chloro-4-((3-(2,3-dihydrobenzo[b][1,4]dioxin-6-yl)-2-methylbenzyl)oxy)-2-((tetrahydro-2H-pyran-4-yl)methoxy)benzyl)piperidine-2-carboxylic acid] belongs 8.15.
The compound `Cc1c(COc2cc(OCc3cncc(C(=O)N[C@@H](CCCNC(=N)N)C(=O)O)c3)c(CN3CC[C@H](O)C3)cc2Cl)cccc1-c1ccc2c(c1)OCCO2` [Example 2010, (S)-2-(5-((4-chloro-5-((3-(2,3-dihydrobenzo[b][1,4]dioxin-6-yl)-2-methylbenzyl)oxy)-2-(((S)-3-hydroxypyrrolidin-1-yl)methyl)phenoxy)methyl)nicotinamido)-5-guanidinopentanoic acid] gave a pIC50 of 8.19.
For the compound `Cc1c(COc2cc(OCC3CCOCC3)c(CNC(C)(CO)CO)cc2Cl)cccc1-c1ccc2c(c1)OCCO2` [Example 1047, 2-((5-Chloro-4-((3-(2,3-dihydrobenzo[b][1,4]dioxin-6-yl)-2-methylbenzyl)oxy)-2-((tetrahydro-2H-pyran-4-yl)methoxy)benzyl)amino)-2-methylpropane-1,3-diol], the negative-log IC50 (pIC50) was 8.27.
Take `Cc1c(COc2cc(OCCN3CCCCC3)c(CN3CCCC[C@H]3C(=O)O)cc2Cl)cccc1-c1ccc2c(c1)OCCO2` [Example 1042, (S)-1-(5-Chloro-4-((3-(2,3-dihydrobenzo[b][1,4]dioxin-6-yl)-2-methylbenzyl)oxy)-2-(2-(piperidin-1-yl)ethoxy)benzyl)piperidine-2-carboxylic acid]: the pIC50 is 9.22.
In the case of `Cc1c(COc2cc(OCc3cnn(CC(=O)O)c3)c(CN[C@@](C)(CO)C(=O)O)cc2Cl)cccc1-c1ccc2c(c1)OCCO2` [Example 1016, (S)-2-((2-((1-(Carboxymethyl)-1H-pyrazol-4-yl)methoxy)-5-chloro-4-((3-(2,3-dihydrobenzo[b][1,4]dioxin-6-yl)-2-methylbenzyl)oxy)benzyl)amino)-3-hydroxy-2-methylpropanoic acid] it was 8.27.
`Cc1c(COc2cc(OCC3CCCN(C)C3)c(CN[C@@H](CO)C(=O)O)cc2Cl)cccc1-c1ccc2c(c1)OCCO2` (single isomer, unassigned) [Example 2005] showed a negative logarithm of the IC50 (pIC50) of 8.72.
To `Cc1c(COc2cc(OCCN3CC[C@@H](O)C3)c(CN[C@](C)(CO)C(=O)O)cc2Cl)cccc1-c1ccc2c(c1)OCCO2` [Example 1022, (R)-2-((5-Chloro-4-((3-(2,3-dihydrobenzo[b][1,4]dioxin-6-yl)-2-methylbenzyl)oxy)-2-(2-((R)-3-hydroxypyrrolidin-1-yl)ethoxy)benzyl)amino)-3-hydroxy-2-methylpropanoic acid] belongs 8.57; to `Cc1c(COc2cc(OCc3ccnc(NC(=O)N4CCOCC4)c3)c(CN[C@@](C)(CO)C(=O)O)cc2Cl)cccc1-c1ccc2c(c1)OCCO2` [Example 1004, (S)-2-((5-Chloro-4-((3-(2,3-dihydrobenzo[b][1,4]dioxin-6-yl)-2-methylbenzyl)oxy)-2-((2-(morpholine-4-carboxamido)pyridin-4-yl)methoxy)benzyl)amino)-3-hydroxy-2-methylpropanoic acid], 7.76.
Regarding `Cc1c(COc2cc(OC[C@@H](C)CO)c(CN3CCCC[C@H]3C(=O)O)cc2Cl)cccc1-c1ccc2c(c1)OCCO2` [Example 1034, (S)-1-(5-chloro-4-((3-(2,3-dihydrobenzo[b][1,4]dioxin-6-yl)-2-methylbenzyl)oxy)-2-((S)-3-hydroxy-2-methylpropoxy)benzyl)piperidine-2-carboxylic acid], the negative-log IC50 (pIC50) is 8.41.
In the case of `Cc1c(COc2cc(OCC3CCCN(C)C3)c(CN[C@@](C)(CO)C(=O)O)cc2Cl)cccc1-c1ccc2c(c1)OCCO2` (stereo partly drawn) [Example 2003, (2S)-2-((5-chloro-4-((3-(2,3-dihydrobenzo[b][1,4]dioxin-6-yl)-2-methylbenzyl)oxy)-2-((1-methylpiperidin-3-yl)methoxy)benzyl)amino)-3-hydroxy-2-methylpropanoic acid] it was 8.19; in that of `Cc1c(COc2cc(OCCN3CCCC(O)(C(F)(F)F)C3)c(CNC(C)(CO)CO)cc2Cl)cccc1-c1ccc2c(c1)OCCO2` (stereo not drawn) [Example 1059, 2-((5-Chloro-4-((3-(2,3-dihydrobenzo[b][1,4]dioxin-6-yl)-2-methylbenzyl)oxy)-2-(2-(3-hydroxy-3-(trifluoromethyl)piperidin-1-yl)ethoxy)benzyl)amino)-2-methylpropane-1,3-diol], 8.66.
To `Cc1c(COc2cc(OCC3CCC3)c(CNC(C)(CO)CO)cc2Cl)cccc1-c1ccc2c(c1)OCCO2` [Example 1049, 2-((5-Chloro-2-(cyclobutylmethoxy)-4-((3-(2,3-dihydrobenzo[b][1,4]dioxin-6-yl)-2-methylbenzyl)oxy)benzyl)amino)-2-methylpropane-1,3-diol] belongs 7.85; to `Cc1c(COc2cc(OCc3cncc(C(=O)NCCCN(C)C)c3)c(CN3CC[C@H](O)C3)cc2Cl)cccc1-c1ccc2c(c1)OCCO2` [Example 2007, (S)-5-((4-chloro-5-((3-(2,3-dihydrobenzo[b][1,4]dioxin-6-yl)-2-methylbenzyl)oxy)-2-((3-hydroxypyrrolidin-1-yl)methyl)phenoxy)methyl)-N-(3-(dimethylamino)propyl)nicotinamide], 8.47.
To `Cc1c(COc2cc(OCC3CCCCC3)c(CNC(C)(CO)CO)cc2Cl)cccc1-c1ccc2c(c1)OCCO2` [Example 1041, 2-((5-Chloro-2-(cyclohexylmethoxy)-4-((3-(2,3-dihydrobenzo[b][1,4]dioxin-6-yl)-2-methylbenzyl)oxy)benzyl)amino)-2-methylpropane-1,3-diol] belongs 7.30.
Compound `Cc1c(COc2cc(OCCN3CCCCC3)c(CNC(C)(CO)CO)cc2Cl)cccc1-c1ccc2c(c1)OCCO2` [Example 1044, 2-((5-Chloro-4-((3-(2,3-dihydrobenzo[b][1,4]dioxin-6-yl)-2-methylbenzyl)oxy)-2-(2-(piperidin-1-yl)ethoxy)benzyl)amino)-2-methylpropane-1,3-diol] showed a pIC50 of 8.68.
To `Cc1c(COc2cc(OCCN3CC[C@@H](O)C3)c(CN3CCCC[C@H]3C(=O)O)cc2Cl)cccc1-c1ccc2c(c1)OCCO2` [Example 1023, (S)-1-(5-Chloro-4-((3-(2,3-dihydrobenzo[b][1,4]dioxin-6-yl)-2-methylbenzyl)oxy)-2-(2-((R)-3-hydroxypyrrolidin-1-yl)ethoxy)benzyl)piperidine-2-carboxylic acid] belongs 8.34.
